What follows are compounds tested on D54 ERlucT glycosylation luciferase reporter, luminescence, 24 h (assay: blockers of NLG process in reporter cells – D54 ERlucT cells, luminescence, cherry-picks, dose response (AID 624491);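 note: signal gain reflects blocked N-linked glycosylation of a luciferase reporter; actives raise luciferase signal so AC26 marks activators of the reporter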).

In order of falling AC26:
1. CNC(=O)c1cccn(Cc2cc(C(F)(F)F)cc(C(F)(F)F)c2)c1=O  16000 nM
2. COC(=O)C(=Cc1ccc(-c2ccsc2C(=O)OC)o1)C(=O)OC  9800 nM
3. CN(C)CCCNc1c2c(nc3ccccc13)CCC2  9560 nM
4. COc1cc(C2CC(=O)Nc3cc(C)c(C)cc32)cc(OC)c1OC (stereo not drawn)  8880 nM
5. Nc1nonc1C(=O)N/N=C/c1ccc([N+](=O)[O-])o1  6160 nM
6. Cc1cc(C)nc(/N=C(\N)Nc2ccc(CC(=O)OC(C)C)cc2)n1  5890 nM
7. Cc1nc2ccccc2c2oc(C(=O)NCCCN3CC(C)CC(C)C3)cc12 (stereo not drawn)  5380 nM
8. Cn1c(=O)n(C)c2cc(NS(=O)(=O)c3ccc(F)cc3)ccc21  5290 nM
9. Cc1cc(C)c(NC(=O)CSc2nc(COc3ccccc3)nc3ccccc23)c(C)c1  5220 nM
10. CC12CC[C@H]3[C@@H](CCC4(O)C[C@H](O)CCC34/C=N/NC(=O)c3ccccc3[N+](=O)[O-])C1(O)CCC2C1=CC(=O)OC1 (stereo partly drawn)  4280 nM
11. OC1CCCN(Cc2ccc3ccc4cccc5ccc2c3c45)C1 (stereo not drawn)  4270 nM
12. CN1C(=O)CSc2ccc(NC(=O)Nc3ccccn3)cc21  4260 nM
13. CCOC(=O)/C(=C/c1c(C)n(C)c2ccc([N+](=O)[O-])cc12)C(C)=O  4230 nM
14. CC1CCCCN1C(=O)NC12CC3CC(CC(C3)C1)C2 (stereo not drawn)  4170 nM
15. CN1CCN(C(c2ccc(Cl)cc2)c2cc(Cl)c3cccnc3c2O)CC1 (stereo not drawn)  4040 nM
16. CC(NC(=O)c1ccc2ccccc2n1)c1ccc(S(N)(=O)=O)cc1 (stereo not drawn)  4020 nM
17. CCCCCCC(=O)N(O)C1CC(=O)N(c2ccc(C)cc2)C1=O (stereo not drawn)  3990 nM
18. CCCCCCCCCCCCCCCCCCNc1ccn(C2OC(COP(=O)(O)OCC3OC(n4cc(F)c(=O)[nH]c4=O)CC3O)C(O)C2O)c(=O)n1 (stereo not drawn)  3970 nM
19. Oc1ccc(-c2csc(-c3c[nH]c4ccccc34)n2)c(O)c1  3410 nM
20. CN(C1=C(NC(=O)c2ccc(Cl)cc2)C(=O)c2ccccc2C1=O)c1ccccc1  3410 nM
21. COc1cc2c(cc1OC)C(c1cccs1)N(C(=O)c1ccncc1)CC2 (stereo not drawn)  3030 nM
22. COc1ccc([C@@H]2[C@@H]3C(=O)N(C(C)(C)C)C(=O)[C@@H]3[C@]3(Cc4ccccc4)C(=O)N(c4cccc(Cl)c4)C(=O)N23)cc1  2990 nM
23. CCN1C(=O)c2cccc3c(S(=O)(=O)Nc4ccccn4)ccc1c23  2870 nM
24. COc1cc(-c2cnc3c(NC(C)=O)cc(-c4ccccc4CN(C)C)cn23)cc(OC)c1OC  2650 nM
25. CN(C)c1ccc(CNC(=O)C2(C)Cc3c(-c4ccc5c(c4)OCO5)ccnc3O2)cc1 (stereo not drawn)  2630 nM
26. COc1cc(C(=O)NCC(=O)NCCN2C(=O)S/C(=C\c3ccccc3Cl)C2=O)cc(OC)c1OC  2430 nM
27. COc1ccc2cc(C)c3nnc(SCC(=O)Nc4nc(-c5ccc(F)cc5)cs4)n3c2c1  2360 nM
28. COc1ccc(NC(=O)C2(C)Cc3c(-c4cccc(C(N)=O)c4)ccnc3O2)cc1 (stereo not drawn)  2320 nM
29. COC(=O)c1sc(N)c(C(=O)OC)c1COC(=O)c1c(C)noc1C  2130 nM
30. COc1ccc(/C=N/NC(=O)c2cccnc2)cc1COc1ccc(NC(C)=O)cc1  1990 nM
31. CC(=O)N1CCc2c(sc(NC(=O)c3ccc4c(c3)OCCO4)c2C#N)C1  1950 nM
32. CCOC(=O)c1cc2[nH]c3ccccc3c2[n+](-c2ccc([N+](=O)[O-])cc2)c1N  1930 nM
33. COc1ccc(C2C3=C(COC3=O)Oc3cc4c(cc32)OCO4)cc1OC (stereo not drawn)  1780 nM
34. O=C(Oc1ccccc1C(=O)Nc1ccccc1)c1ccccc1Br  1670 nM
35. Cc1ccc(C(=O)N2CCN(Cc3ccccc3)CC2)cc1S(=O)(=O)N1CCOCC1  1670 nM
36. O=C(N/N=C/c1ccc(F)cc1)c1sccc1OCc1ccc(F)cc1  1630 nM
37. CCCNC(=O)c1ccccc1NC(=O)c1ccc2c(c1)NC(=O)C(C)S2 (stereo not drawn)  1450 nM
38. COc1ccc(C(=O)CC(SCC(NC(C)=O)C(=O)O)c2ccc(Cl)cc2)cc1OC (stereo not drawn)  1440 nM
39. COc1ccc(/C=N/NC(=O)c2ccccc2OCc2ccccc2)c(OC)c1  1400 nM
40. NC(=O)N=Nc1c2[nH]c3ccccc3nc-2c2ccccc12  1130 nM
41. CCC(c1nc2ccccc2c(=O)n1-c1nc2ccccc2s1)N1C(=O)c2ccccc2C1=O (stereo not drawn)  1030 nM
42. C[C@@]12C(=O)Nc3cc(Cl)ccc3C(=O)N1[C@H]1c3cc(Br)ccc3OC[C@@H]1[C@@H]2c1ccccc1  961 nM
43. Cc1ccc2nsnc2c1NC(=O)c1ccc(-c2cc(Cl)ccc2Cl)o1  846 nM
44. O=C(CCl)Nc1ccc(Sc2ccc(NC(=O)CCl)cc2)cc1  667 nM
45. CC(=O)Nc1ccc(-c2ccnc3c2CC(C(=O)NCc2cccc(Cl)c2)O3)cc1 (stereo not drawn)  540 nM
46. O=c1c2c3c(sc2ncn1/N=C/c1ccc([N+](=O)[O-])o1)CCCC3  447 nM
47. Brc1ccc(C2=Nn3c(nnc3-c3n[nH]c4c3CCC4)SC2)cc1  407 nM
48. CN=c1sc(C(=O)Nc2cccc(Cl)c2)cc(=O)n1C  349 nM
49. Cc1c(Cl)cccc1Nc1nc(N)nc(CN2CCc3ccccc3C2)n1  320 nM
50. CN1CCc2nc3sc(C#N)c(N)c3c(-c3cccs3)c2C1  261 nM
51. COc1ccc(-c2ccc(C(c3c(C)[nH][nH]c3=O)c3c(C)[nH][nH]c3=O)o2)c([N+](=O)[O-])c1  224 nM
52. COc1cccc(C(NC(C)=O)c2nc(-c3ccc(F)cc3OC)cs2)c1 (stereo not drawn)  105 nM
53. CCC(C)C(=O)OC1CCC=C2C=CC(C)C(CCC3CC(O)CC(=O)O3)C21 (stereo not drawn)  34.8 nM
